In patent CN111004186A, “一种小分子荧光探针及其制备方法与应用” (Wenzhou Medical University, priority 2019, dated 2020):

Key:
zebrafish (斑马鱼) = assay: Fluorescence bioimaging of ClO- in zebrafish; assay type: in vivo
[1] = Fluorescence titration of the probe with ClO-; settings: excitation 440 nm
[2] = Fluorescence selectivity of the probe for ClO- over other ions/species
[3] = UV-vis absorption spectra of the probe on addition of ClO-; settings: aqueous solution, probe 10 μM and 5 μM, ClO- added
[4] = system: MRC-5 cells (人胚肺细胞(MRC-5)); assay: Fluorescence bioimaging of ClO- in MRC-5 cells; assay type: cell-based, human

O=C1NC(=S)NC(=O)C1=Cc1ccc2cc(O)ccc2c1 [小分子探针]
red fluorescence in head and abdomen (zebrafish (斑马鱼); 5-day-old zebrafish pretreated with probe, washed three times, then ClO- 6.0 μM): 显着的红色荧光
red fluorescence in the abdomen (zebrafish (斑马鱼); 5-day-old zebrafish, free probe 2.0 μM, 20 min, without added ClO-): 弱而可见的 红色荧光
tissue penetration ability (zebrafish (斑马鱼); zebrafish): 高组织穿透能力
maximum emission ([1]; probe 5 μM in water with ClO-): 535 nm
fluorescence intensity as a function of ClO- concentration ([1]; probe 5 μM in water, 400-700 nm): 随ClO-浓度增加而增强
fluorescence change with anions/species other than ClO- ([2]; probe 2 μM in EtOH-H2O (v/v=1:10), 1.0 eq SO3 2-, NO, 1O2, ·OH, PBO·, TBHP, DBTP, Cys, GSH, H2O2): 没有产生明显变化
fluorescence intensity after addition of ClO- ([2]; probe 2 μM in EtOH-H2O (v/v=1:10), ClO- 1.0 eq): 明显
selectivity for ClO- ([2]; probe 2 μM in EtOH-H2O (v/v=1:10), anions 1.0 eq): 高选择性
fluorescence change with other ions ([2]; probe mixed with other ions (not hypochlorite)): 荧光基本上不发生变化
fluorescence intensity on reaction with hypochlorite ion ([2]; probe with hypochlorite ion): 荧光强度变强
absorption band at 440 nm on addition of ClO- [3]: 逐渐减少
new absorption peak after addition of ClO- [3]: 515 nm
fluorescence signal in cells ([4]; MRC-5 cells incubated with free probe, without added ClO-): 观察到可见荧光信号
fluorescence intensity in the red channel ([4]; MRC-5 cells incubated with probe 20 min, then ClO- 6.0 μM, observed immediately): 显着荧光强度
